Results: publication PMC7558026, “Exploring and applying the substrate promiscuity of a C-glycosyltransferase in the chemo-enzymatic synthesis of bioactive C-glycosides” (Nature Communications, 2020)
Substitutions are numbered along the chain they refer to. Values joined by “and” are separate entries in the source; they are usually repeats but may differ in a detail not shown here. Identical values can stand only once.

What was measured:
Format in all cases: biochemical, Aloe barbadensis
[1] = molecular target: T1, AbCGT V183D (Aloe vera, UniProt A0A7G9P699, V183D); assay: Glycosyltransferase activity of AbCGT variant V183D
T1 sequence (A0A7G9P699 1-470 V183D): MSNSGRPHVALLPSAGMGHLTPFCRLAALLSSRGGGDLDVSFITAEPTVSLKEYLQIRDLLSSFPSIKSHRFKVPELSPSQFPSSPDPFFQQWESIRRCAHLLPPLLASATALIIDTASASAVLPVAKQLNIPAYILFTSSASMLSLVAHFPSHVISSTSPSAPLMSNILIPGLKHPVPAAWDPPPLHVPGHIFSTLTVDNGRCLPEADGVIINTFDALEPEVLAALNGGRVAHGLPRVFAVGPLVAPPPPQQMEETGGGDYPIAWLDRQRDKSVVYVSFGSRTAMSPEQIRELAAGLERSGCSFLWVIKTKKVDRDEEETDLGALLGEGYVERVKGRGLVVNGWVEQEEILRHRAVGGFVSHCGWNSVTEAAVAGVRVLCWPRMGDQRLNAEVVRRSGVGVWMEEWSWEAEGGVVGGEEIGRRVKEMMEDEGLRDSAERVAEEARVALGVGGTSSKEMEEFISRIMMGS
Protocol: (§1) The reaction mixture contained 0.5 mM sugar donors (1.0 mM for di-glycosylation), 0.25 mM aglycons, 50 mM Tris-HCl (pH 7.4), and 50‒100 μg of purified AbCGT in a final volume of 100 μL. Due to the instability of some acceptors in the buffer of pH 11.0, the reactions were performed under the physiological conditions (pH 7.4, 30 °C) to compare the catalytic activities of AbGT27 with different substrates under the same conditions. The reactions were performed at 30 °C for up to 12 h and terminated by the addition of 200 μL of ice-cold methanol. Subsequently, samples were centrifuged at 15,000 × g for 30 min to collect the supernatant, and aliquots were analyzed by HPLC-UV/ESIMS. HPLC analysis was performed on a Shiseido CAPCELL PAK C18 MG III column (250 mm × 4.6 mm I.D., 5 μm, Shiseido Co., Ltd., Japan) at a flow rate of 1 mL min^‒1. The mobile phase was a gradient elution of solvents A (0.1% formic acid aqueous solution) and B (methanol). The gradient programs were used for the analysis of the reactions (Supplementary Table 6). The conversion rates of the enzyme reactions were calculated from peak areas of glycosylated products and substrates as analyzed by HPLC. To facilitate inferential statistical analysis, three parallel assays were routinely performed; the means ± SD from triplicate analyses are reported here.
(§2) Site-saturation mutagenesis of AbCGT at residue 183 was performed by PCR using pET28a-AbCGT as a template and the corresponding degenerate primers, which are listed in Supplementary Table 5. PCR products were purified and transformed into Trans1-T1 (DE3) E. coli. The sequences of pET28a-AbCGT mutants were confirmed by sequencing, and transformed into Transetta (DE3) E. coli for heterologous expression following protein purification.

[2] = molecular target: AbCGT (Aloe vera, UniProt A0A7G9P699); assay: Glycosyltransferase activity assay, purified AbCGT (wild type) with aglycon acceptors and UDP-Glc; details: for conversion rates, O,N,S-glycosylation / conversion rates, di-C-glycosylation / conversion rates, mono-C-glycosylation: aglycon acceptor with UDP-Glc, pH 7.4, 30 °C, up to 12 h, Reaction-1 to -3
Protocol: as §1, with “Due” for “The reaction mixture contained 0.5 mM sugar donors (1.0 mM for di-glycosylation), 0.25 mM aglycons, 50 mM Tris-HCl (pH 7.4), and 50‒100 μg of purified AbCGT in a final volume of 100 μL. Due”, “HPLC analysis was performed on a Shiseido CAPCELL PAK C18 MG III column (250 mm × 4.6 mm I.D., 5 μm, Shiseido Co., Ltd., Japan) at a flow rate of 1 mL min^‒1. The mobile phase was a gradient elution of solvents A (0.1% formic acid aqueous solution) and B (methanol).” left out

[3] = molecular target: T2, AbCGT V183E (Aloe vera, UniProt A0A7G9P699, V183E); assay: Glycosyltransferase activity of AbCGT variant V183E
T2 sequence (A0A7G9P699 1-470 V183E): T1 sequence (A0A7G9P699 1-470 V183D) with D183E
Protocol: as §1, §2

Sequence of AbCGT (A0A7G9P699 entry or part of it): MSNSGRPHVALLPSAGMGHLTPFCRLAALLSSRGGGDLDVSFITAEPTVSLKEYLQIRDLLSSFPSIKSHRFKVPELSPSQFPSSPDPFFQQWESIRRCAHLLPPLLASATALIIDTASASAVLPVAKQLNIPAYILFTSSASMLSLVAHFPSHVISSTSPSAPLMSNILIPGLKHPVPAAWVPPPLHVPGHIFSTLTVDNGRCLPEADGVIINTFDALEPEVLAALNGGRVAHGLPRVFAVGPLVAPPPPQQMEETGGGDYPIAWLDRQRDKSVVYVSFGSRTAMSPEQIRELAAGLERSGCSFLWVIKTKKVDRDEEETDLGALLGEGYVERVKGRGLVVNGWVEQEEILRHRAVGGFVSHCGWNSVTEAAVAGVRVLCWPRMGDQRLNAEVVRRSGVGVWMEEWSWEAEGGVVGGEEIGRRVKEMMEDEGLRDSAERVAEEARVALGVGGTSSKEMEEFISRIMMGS

Row | SMILES | V183D/yield of C-glycoside(%) ([1]; reaction-1) | V183D/yield of O-glycoside(%) ([1]; reaction-1) | V183D/yield of C-glycoside(%) ([1]; reaction-2) | V183D/yield of O-glycoside(%) ([1]; reaction-2) | V183D/yield of C-glycoside(%) ([1]; reaction-3) | V183D/yield of O-glycoside(%) ([1]; reaction-3) | conversion rates, O,N,S-glycosylation [2] | conversion rates, di-C-glycosylation [2] [%] | conversion rates, mono-C-glycosylation [2] | WT/yield of C-glycoside(%) ([2]; reaction-1) | WT/yield of O-glycoside(%) ([2]; reaction-1) | WT/yield of C-glycoside(%) ([2]; reaction-2) | WT/yield of O-glycoside(%) ([2]; reaction-2) | WT/yield of C-glycoside(%) ([2]; reaction-3) | WT/yield of O-glycoside(%) ([2]; reaction-3) | V183E/yield of O-glycoside(%) ([3]; reaction-1) | V183E/yield of C-glycoside(%) ([3]; reaction-2) | V183E/yield of O-glycoside(%) ([3]; reaction-2) | V183E/yield of C-glycoside(%) ([3]; reaction-3) | V183E/yield of O-glycoside(%) ([3]; reaction-3) | other results
1 | CC(=O)c1ccccc1O [Compound 1] | 0 | 0 | 0 | 0 | 0 | 0 | 30.2% and 31% and 32.1% | 0 | 0% | 0 | 32.8 | 0 | 33.5 | 0 | 28.2 |  |  |  |  |  | 
2 | CC(=O)c1cccc(O)c1 [Compound 2] | 0 | 0 | 0 | 0 | 0 | 0 | 71% and 72.2% and 73.1% | 0 | 0% | 0 | 70.1 | 0 | 73.8 | 0 | 73 | 0 | 0 | 0 | 0 | 0 | V183E/yield of C-glycoside(%) ([3]; reaction-1): 0%
3 | CC(=O)c1ccc(O)cc1 [Compound 3] | 0 | 0 | 0 | 0 | 0 | 0 | 70.3% and 72% and 73% | 0 | 0% | 0 | 70.4 | 0 | 71.9 | 0 | 71 | 0 | 0 | 0 | 0 | 0 | V183E/yield of C-glycoside(%) ([3]; reaction-1): 0%
4 | CC(=O)c1cc(O)cc(O)c1 [Compound 4, 3,5-dihydroxyacetophenone] | 0 | 0 | 0 | 0 | 0 | 0 | 32.6% and 34.9% and 33.8% | 0 | 0% | 1 | 38.8 | 0.8 | 32.4 | 1.3 | 32.9 | 0 | 0 | 0 | 0 | 0 | V183E/yield of C-glycoside(%) ([3]; reaction-1): 0%
5 | CC(=O)c1c(O)cccc1O [Compound 5] | 8.2 | 0 | 7.5 | 0 | 7.9 | 0 | 72% and 70.6% and 73% | 0 | 16.5% and 14.3% and 13.1% | 15.1 | 73.6 | 14.2 | 71 | 14.7 | 72.9 | 0 | 0 | 0 | 0 | 0 | V183E/yield of C-glycoside(%) ([3]; reaction-1): 0%
6 | CC(=O)c1ccc(O)cc1O [Compound 6, 2,4-dihydroxyacetophenone] | 13.9 | 1 | 12.3 | 1.5 | 13.1 | 1.4 | 43.8% and 46.5% and 44.5% | 0 | 27.1% and 26.5% and 27.4% | 29.2 | 43.5 | 25.9 | 45.7 | 26 | 47 | 0 | 5.5 | 0 | 6.8 | 0 | 
